Consider 7 molecules from patent publication US12187727B2, “Methods for antagonizing a melanocortin 4 receptor” (Pfizer Inc., priority 2020, dated 2025).

The target in assay [1] is hMC4R (Homo sapiens (Human), UniProt P32245). Nature of the assay: In vitro binding affinity assay using hMC4R (radioligand competition binding, [125I]-(Nle4, D-Phe7)-α-MSH). The settings on record: geometric mean. Background: In a radioligand displacement assay an active substance lowers the binding of a labelled ligand.
hMC4R, sequence (P32245 whole entry): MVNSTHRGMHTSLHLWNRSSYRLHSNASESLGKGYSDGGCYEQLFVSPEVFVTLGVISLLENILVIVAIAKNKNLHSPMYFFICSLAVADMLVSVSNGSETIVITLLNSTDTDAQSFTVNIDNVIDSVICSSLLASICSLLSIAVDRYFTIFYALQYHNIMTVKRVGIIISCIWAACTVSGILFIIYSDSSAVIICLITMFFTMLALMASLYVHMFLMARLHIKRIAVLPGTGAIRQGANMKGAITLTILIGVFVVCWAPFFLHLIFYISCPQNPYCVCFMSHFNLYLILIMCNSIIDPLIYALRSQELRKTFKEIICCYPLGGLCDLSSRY
The target of assay [2] is human Melanocortin-4 receptor (MC4R) (Homo sapiens (Human), UniProt P32245). Kind of assay: Functional in vitro MC4R antagonist potency assay (cAMP HTRF in CHO cells). The format is cell-based. The essentials: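 CHO cells stably expressing human MC4R were preincubated 30 min at 37 °C with compound ([…], 0.1% DMSO), then stimulated 30 min with EC80 αMSH (200 nM). Intracellular cAMP quantified by HTRF competitive immunoassay and normalized to agonist-stimulated and vehicle-only wells.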
human Melanocortin-4 receptor (MC4R), sequence (P32245 whole entry): as above

[3] abbreviates: read-out: Ki (nM) geometric mean.
The mark [4] stands for this setting: read-out: Kb (nM) Antagonist geometric mean.
[5] abbreviates: human MC4R in CHO cells, cAMP HTRF, 200 nM aMSH challenge, Kb from IC50 by Leff-Dougall equation, geometric mean, read-out: Kb (nM) Antagonist geometric.

Read-outs that look alike come from different tables or passages of the source.

Usually Ki stands for the equilibrium dissociation constant of an inhibitor or competing ligand from its target. By Kb is commonly meant the equilibrium dissociation constant of an antagonist, usually derived from a functional assay.

As for `Cc1nc2c(cc1-c1ncccn1)CC[C@@]1(CCN(C(=O)C(C)c3ccc(C(F)(F)F)cc3)C1)N2` (single isomer, unassigned) [Example 8], the Ki in assay [1] (setting [3]) came to 76 nM. Moreover, in assay [2] (setting [4]), the Kb is more than 95 nM.
On to `Cc1nc2c(cc1-c1ncccn1)CC[C@@]1(CCN(C(=O)[C@H](C)c3ccc(Cl)cc3Cl)C1)N2` (single isomer, unassigned) [Example 34], for which the Ki in assay [1] (setting [3]) is 0.9 nM. Further, the Kb in assay [2] (setting [4]) was 4.2 nM.
Turning to `COc1cc([C@@H](C)C(=O)N2CCC3(CCc4cc(-c5nc(OC)n(C)n5)c(C)nc4N3)C2)c(Cl)cn1` (single isomer, unassigned) [Example 115], the Ki in assay [1] (read-out: Ki (nM) geometric) is 31 nM. Moreover, the Kb in assay [2] (setting [5]) stood at 3.5 nM.
As to `COc1nccc([C@@H](C)C(=O)N2CC[C@@]3(CCc4cc(-c5ncccn5)c(C)nc4N3)C2)c1F` (single isomer, unassigned) [Example 57], in assay [1] (setting [3]), the Ki was 2.5 nM. Besides, the antagonist dissociation constant (Kb) in assay [2] (setting [4]) was found to be 12 nM.
On to `COc1cc([C@@H](C)C(=O)N2CC[C@@]3(CCc4cc(-c5nc(C(F)F)n(C)n5)c(C)nc4N3)C2)nc(C)n1` (single isomer, unassigned) [Example 124], for which the Ki in assay [1] (read-out: Ki (nM) geometric) was determined as 6.7 nM. In addition, the Kb in assay [2] (setting [5]) worked out at 0.81 nM.
For `COc1cc([C@@H](C)C(=O)N2CC[C@@]3(CCc4cc(-c5ncccn5)c(C)nc4N3)C2)c(C(F)(F)F)cn1` (single isomer, unassigned) [Example 41], in assay [1] (setting [3]), the Ki was found to be 0.53 nM. Further, in assay [2] (setting [4]), the Kb was found to be 0.12 nM.
With `COc1cc([C@](C)(F)C(=O)N2CC[C@@]3(CCc4cc(-c5ncccn5)c(C)nc4N3)C2)c(F)cn1` (single isomer, unassigned) [Example 149], the Ki in assay [1] (read-out: Ki (nM) geometric) was found to be 1.8 nM. In assay [2] (setting [5]), the Kb was 7.9 nM.
